Among the data in patent US11161815B2, “Hydrocarbylsulfonyl-substituted pyridines and their use in the treatment of cancer” (Oblique Therapeutics AB, priority 2017, dated 2021) are IC50 values, retold here.

As usually defined, the IC50 is the concentration at which inhibition is half-maximal.

Assay [1] addresses recombinant thioredoxin reductase 1 (TrxR1) (Homo sapiens (Human), UniProt Q16881). As to the kind of experiment: Inhibition of recombinant TrxR1 (DTNB assay). The assay is classed as biochemical. Conditions: 30 nM TrxR1, 250 μM NADPH, 15 minutes incubation, read-out: TrxR Assay IC50. On the procedure: (§1) Small molecule inhibition of recombinant thioredoxin reductase 1 (TrxR1) and gluthathione reductase (GR) was examined in 96-well plate format. 30 nM TrxR1 was incubated in the presence of 250 μM NADPH, 0.1 mg/ml BSA, and various concentrations of compound (1% DMSO final) in 50 mM Tris (pH 7.5) and 2 mM EDTA buffer for 15 minutes. Following the incubation period, 2 mM DTNB was added to each well and the change in O.D. at 412 nm was followed. Percent activity was determined using DMSO vehicle and no TrxR1 (blank) controls. 2 nM GR was incubated in the presence of 250 μM NADPH, 0.1 mg/ml BSA, and various concentrations of compounds (1% DMSO final) in 50 mM Tris (pH 7.5) and 2 mM EDTA buffer for 15 minutes. Following the incubation period, 1 mM GSSG was added to each well and the change in O.D. at 340 nm was followed. Percent activity was determined using DMSO vehicle and no GR (blank) controls.

Assay [2] addresses gluthathione reductase (GR) (Homo sapiens (Human), UniProt P00390). As to the kind of experiment: Inhibition of recombinant GR (GSSG assay). The class given is biochemical. Conditions: 2 nM GR, 250 μM NADPH, 15 minutes incubation. On the procedure:
as §1

The next assay has as its system MDA-MB-231 cells. As to the kind of experiment: Breast cancer cell viability assay (Alamar Blue). The assay is classed as cell-based. To be noted: Homo sapiens, 72 hrs, 10% FBS media containing 25 nM selenite. On the procedure: MDA-MB-231 cells were plated 2000 cells/well in 96-well black optical plates in the presence of 10% FBS media containing 25 nM selenite. The following day cells were treated with various concentrations of compounds (0.1% DMSO final) and incubated for 72 hrs. After the incubation Alamar Blue reagent was added to each well and incubated for additional 3 hrs. Fluorescence was read ex:530 nm/em:590 nm, and percent of viability was determined using DMSO vehicle and no cell (blank) controls.
In general terms: The colour change of resazurin is a common sign of viable cells or microbes.

For the next assay, the system named is U-87 MG. As to the kind of experiment: Cancer cell viability assay (MTT), U-87 MG. The assay is classed as cell-based. To be noted: Homo sapiens, 72 hrs, 10% FBS media. The protocol: (§2) Breast cancer and glioblastoma cell lines were plated 4000 cells/well in 96-well plates in the presence of 10% FBS media. The following day cells were treated with various concentrations of the example compounds (0.1% DMSO final) and incubated for 72 hrs. After the incubation An MTT assay was performed to access cell viability. Percent of viability was determined using DMSO vehicle and no cell (blank) controls.

In a further assay the test system is MDA-MB-231. As to the kind of experiment: Cancer cell viability assay (MTT), MDA-MB-231. The class given is cell-based. To be noted: Homo sapiens, 72 hrs, 10% FBS media. The protocol: as §2
A further assay relates to MDA-MB-468. As to the kind of experiment: Cancer cell viability assay (MTT), MDA-MB-468. Conditions: Homo sapiens, 72 hrs, 10% FBS media. The class given is cell-based. The protocol:
as §2

recombinant thioredoxin reductase 1 (TrxR1), sequence (Q16881 151-649): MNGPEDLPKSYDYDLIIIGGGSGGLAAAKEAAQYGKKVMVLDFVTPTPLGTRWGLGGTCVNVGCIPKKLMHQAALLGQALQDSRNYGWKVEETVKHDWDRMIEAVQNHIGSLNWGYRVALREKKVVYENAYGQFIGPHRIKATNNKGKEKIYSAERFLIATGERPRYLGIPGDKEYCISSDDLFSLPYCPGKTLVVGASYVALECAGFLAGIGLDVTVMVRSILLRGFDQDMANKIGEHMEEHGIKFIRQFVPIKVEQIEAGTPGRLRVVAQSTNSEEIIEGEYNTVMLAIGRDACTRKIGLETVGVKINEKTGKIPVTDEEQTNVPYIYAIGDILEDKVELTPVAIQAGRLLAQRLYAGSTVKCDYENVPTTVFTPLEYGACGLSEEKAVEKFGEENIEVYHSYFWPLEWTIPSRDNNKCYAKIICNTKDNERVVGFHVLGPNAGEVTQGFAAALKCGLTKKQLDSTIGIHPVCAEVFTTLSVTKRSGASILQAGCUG
gluthathione reductase (GR), sequence (P00390 44-522): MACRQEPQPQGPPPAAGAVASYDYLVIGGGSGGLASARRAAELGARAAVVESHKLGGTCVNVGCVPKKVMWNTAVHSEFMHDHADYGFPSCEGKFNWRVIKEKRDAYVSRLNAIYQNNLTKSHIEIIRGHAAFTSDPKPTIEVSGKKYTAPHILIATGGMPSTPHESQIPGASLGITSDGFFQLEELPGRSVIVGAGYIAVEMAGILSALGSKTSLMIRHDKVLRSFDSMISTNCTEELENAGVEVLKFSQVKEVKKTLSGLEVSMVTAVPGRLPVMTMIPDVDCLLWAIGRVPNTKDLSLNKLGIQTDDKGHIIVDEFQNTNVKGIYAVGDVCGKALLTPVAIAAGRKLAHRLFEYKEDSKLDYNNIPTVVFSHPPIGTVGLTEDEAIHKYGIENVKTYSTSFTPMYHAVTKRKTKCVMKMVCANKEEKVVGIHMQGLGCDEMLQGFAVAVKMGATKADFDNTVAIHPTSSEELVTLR

With `CCS(=O)(=O)c1nc(OC)ccc1[N+](=O)[O-]` [Example 10, 2-(ethylsulfonyl)-6-methoxy-3-nitropyridine], the IC50 in assay [1] was 0.124 µM; in assay [2], over 100 µM; in the assay with MDA-MB-231 cells, 2.95 µM; in the assay on U-87 MG, 5.95 µM; with MDA-MB-231, 5.12 µM; in the assay with MDA-MB-468 it was 3.16 µM.

On to `COc1ccc([N+](=O)[O-])c(S(=O)(=O)C(C)C)n1` [Example 11, 2-(isopropylsulfonyl)-6-methoxy-3-nitropyridine], for which the IC50 is 0.204 µM in assay [1]; over 100 µM in assay [2]; 6 µM in the assay on U-87 MG; 7.1 µM in the assay with MDA-MB-231; 4.9 µM in the assay with MDA-MB-468.

`CCCCCCCCS(=O)(=O)c1nc(OC)ccc1[N+](=O)[O-]` [Example 12, 6-methoxy-3-nitro-2-(octylsulfonyl)pyridine]: the IC50 is 0.0123 µM in assay [1], over 100 µM in assay [2] and 4.51 µM with MDA-MB-231 cells.

For the compound `COc1ccc([N+](=O)[O-])c(S(=O)(=O)C2CC2)n1` [Example 13, 2-(cyclopropylsulfonyl)-6-methoxy-3-nitropyridine], the IC50 in assay [1] was 0.16 µM; in assay [2], over 100 µM; in the assay on U-87 MG it was 6.92 µM; in the assay with MDA-MB-231 it was 5.91 µM; with MDA-MB-468 it was 4.68 µM.

As for `COc1ccc([N+](=O)[O-])c(S(=O)(=O)CCCCC(F)(F)F)n1` [Example 14, 6-methoxy-3-nitro-2-((5,5,5-trifluoropentyl)sulfonyl)pyridine], the IC50 in assay [1] was 0.0969 µM; in assay [2] it was over 100 µM; in the assay with MDA-MB-231 cells, 5.6 µM; in the assay on U-87 MG, 7.52 µM; in the assay with MDA-MB-231, 7.73 µM; in the assay with MDA-MB-468, 3.88 µM.

For `COc1ccc([N+](=O)[O-])c(S(=O)(=O)CCNC(C)=O)n1` [Example 15, N-(2-((6-methoxy-3-nitropyridin-2-yl)sulfonyl)ethyl)acetamide], the IC50 in assay [1] was 0.122 µM; in assay [2], over 100 µM; in the assay with MDA-MB-231 cells it was 11.4 µM; in the assay with U-87 MG it was 16.3 µM; in the assay with MDA-MB-231, 18.4 µM; in the assay on MDA-MB-468, 5.47 µM.

With `COC(=O)CCS(=O)(=O)c1nc(OC)ccc1[N+](=O)[O-]` [Example 16, methyl 3-((6-methoxy-3-nitropyridin-2-yl)sulfonyl)propanoate], the IC50 in assay [1] was 0.0606 µM; in assay [2], over 100 µM; in the assay on MDA-MB-231 cells, 8.09 µM; in the assay on U-87 MG, 5.23 µM; with MDA-MB-231 it was 4.9 µM; in the assay with MDA-MB-468, 3.9 µM.

As to `COc1ccc([N+](=O)[O-])c(S(=O)(=O)CCN2CCCCC2)n1` [Example 18, 6-methoxy-3-nitro-2-((2-(piperidin-1-yl)ethyl)sulfonyl)pyridine], the IC50 is 0.00152 µM in assay [1] and over 100 µM in assay [2].

Consider `COc1ccc([N+](=O)[O-])c(S(=O)(=O)Cc2ccccc2Cl)n1` [Example 19, 2-((2-chlorobenzyl)sulfonyl)-6-methoxy-3-nitropyridine], for which the IC50 in assay [1] is 0.0076 µM; in assay [2] it was over 100 µM; with MDA-MB-231 cells, 1.8 µM.

Regarding `COc1ccc([N+](=O)[O-])c(S(=O)(=O)Cc2cccc(Cl)c2)n1` [Example 20, 2-((3-chlorobenzyl)sulfonyl)-6-methoxy-3-nitropyridine], the IC50 in assay [1] is 0.00716 µM; in assay [2] it was over 100 µM; with MDA-MB-231 cells, 3.2 µM.

Take `COc1ccc([N+](=O)[O-])c(S(=O)(=O)Cc2ccc(Cl)cc2)n1` [Example 21, 2-((4-chlorobenzyl)sulfonyl)-6-methoxy-3-nitropyridine]: the values for the IC50 (in assay [1]; in assay [2]; in the assay on MDA-MB-231 cells) were 0.00435 µM, over 100 µM and 4.1 µM, respectively.

Regarding `COc1ccc([N+](=O)[O-])c(S(=O)(=O)Cc2ccc(F)cc2)n1` [Example 22, 2-((4-fluorobenzyl)sulfonyl)-6-methoxy-3-nitropyridine], the IC50 in assay [1] is 0.00505 µM; in assay [2], over 100 µM; in the assay on MDA-MB-231 cells, 1.85 µM.

For the compound `COc1ccc([N+](=O)[O-])c(S(=O)(=O)Cc2ccc(C)cc2)n1` [Example 23, 6-methoxy-2-((4-methylbenzyl)sulfonyl)-3-nitropyridine], the IC50 in assay [1] is 0.0145 µM; in assay [2], over 100 µM.

Turning to `COc1ccc(CS(=O)(=O)c2nc(OC)ccc2[N+](=O)[O-])cc1` [Example 24, 6-methoxy-2-((4-methoxybenzyl)sulfonyl)-3-nitropyridine], the IC50 is 0.0253 µM in assay [1], over 100 µM in assay [2] and 3.5 µM in the assay on MDA-MB-231 cells.

Take `COc1ccc([N+](=O)[O-])c(S(=O)(=O)Cc2ccc(OC(F)(F)F)cc2)n1` [Example 25, 6-methoxy-3-nitro-2-((4-(trifluoromethoxy)benzyl)sulfonyl)pyridine]: the figures for the IC50 in assay [1] and in assay [2] were 0.00103 µM and over 100 µM, respectively.

With `COc1ccc([N+](=O)[O-])c(S(=O)(=O)CCc2ccccc2)n1` [Example 26, 6-methoxy-3-nitro-2-(phenethylsulfonyl)pyridine], the IC50 is 0.0188 µM in assay [1], over 100 µM in assay [2] and 5.22 µM in the assay on MDA-MB-231 cells.

On to `COc1ccc([N+](=O)[O-])c(S(=O)(=O)CCCc2ccccc2)n1` [Example 27, 6-methoxy-3-nitro-2-((3-phenylpropyl)sulfonyl)pyridine], for which the figures for the IC50 (in assay [1]; in assay [2]; with MDA-MB-231 cells) were 0.00733 µM, over 100 µM and 7.13 µM, respectively.

On to `COc1ccc([N+](=O)[O-])c(S(=O)(=O)CCOc2ccccc2)n1` [Example 28, 6-methoxy-3-nitro-2-((2-phenoxyethyl)sulfonyl)pyridine], for which the IC50 in assay [1] is 0.0203 µM; in assay [2] it was over 100 µM; with MDA-MB-231 cells, 5.24 µM.

Take `COc1ccc([N+](=O)[O-])c(S(=O)(=O)Cc2ccco2)n1` [Example 29, 2-((furan-2-ylmethyl)sulfonyl)-6-methoxy-3-nitropyridine]: the IC50 in assay [1] is 0.00678 µM; in assay [2] it was over 100 µM; in the assay on MDA-MB-231 cells, 4.36 µM.

Regarding `COc1ccc([N+](=O)[O-])c(S(=O)(=O)CCc2cnccn2)n1` [Example 30, 2-(2-((6-methoxy-3-nitropyridin-2-yl)sulfonyl)ethyl)pyrazine], the IC50 in assay [1] was 0.0669 µM; in assay [2], over 100 µM; in the assay on MDA-MB-231 cells it was 2.66 µM.

Regarding `CC[S+]([O-])c1nc(OC)ccc1[N+](=O)[O-]` (stereo not drawn) [Example 31, 2-Ethanesulfinyl-6-methoxy-3-nitro-pyridine], the IC50 in assay [1] is 0.131 µM; in assay [2], over 100 µM; in the assay on U-87 MG it was 6.22 µM; in the assay on MDA-MB-231 it was 3.51 µM; in the assay on MDA-MB-468 it was 3.23 µM.

Turning to `COc1ccc([N+](=O)[O-])c([S+]([O-])Cc2ccccc2)n1` (stereo not drawn) [Example 32, 2-benzylsulfinyl-6-methoxy-3-nitro-pyridine], the IC50 in assay [1] came to 0.0765 µM; in the assay with U-87 MG, 2.48 µM; with MDA-MB-231 it was 1.42 µM; with MDA-MB-468 it was 0.64 µM.

With `CCCCCCCC[S+]([O-])c1nc(OC)ccc1[N+](=O)[O-]` (stereo not drawn) [Example 33, 6-Methoxy-3-nitro-2-octylsulfinyl-pyridine], the IC50 is 0.5 µM in assay [1]; 85.4 µM in assay [2]; 9.25 µM in the assay on U-87 MG; 3.84 µM with MDA-MB-231; 1.85 µM with MDA-MB-468.
